From patent US20250134882A1, “PROTEIN TYROSINE PHOSPHATASE INHIBITORS AND USES THEREOF” (Nerio Therapeutics, Inc., priority 2022, published 2025)

How the values were obtained:
[1] = test system: murine B16F10 melanoma cell line; experiment: B16F10 IFNγ-induced cellular growth inhibition assay (xCELLigence RTCA); assay type: cell-based; details: Mus musculus, B16-F10, 48 h; read-out: B16 IFNγ Mediated Growth Inhibition Assay: AVG IC50
Description: Example B: B16F10 Cellular Growth Inhibition Assay Compound activity was determined using an interferon gamma (IFNγ)-induced cellular growth inhibition assay with the murine B16F10 melanoma cell line on an Agilent xCELLigence Real-Time Cell Analysis platform (RTCA). RTCA E-Plate View 96 plates (Agilent, 300601010) were pre-equilibrated with 50 μL of assay media (DMEM+10% FBS, Gibco 10566-024, Gibco 10082-147) at 37° C. in a humidified incubator before taking an initial measurement of impedance (sweep). […] Cells were incubated at room temperature for 20 min to allow cells to settle before placing them in the xCELLigence reader and incubating overnight at 37° C., sweeping wells every 15 minutes. After 24 hours, well readings were paused, plates were removed from the incubator and compounds were added using a Tecan D300e dispenser. […] Assay plates were placed in the xCELLigence reader and swept every 15 minutes. After 48 hours, well readings were normalized to the time point immediately preceding compound addition and the area under the growth curve (AUC) was calculated by the RTCA software and exported.

[2] = target: full-length human PTPN2 (TC45) (1-387) protein (Homo sapiens (Human), UniProt P17706); experiment: Enzymatic assay with full-length PTPN2 and DiFMUP substrate; assay type: biochemical; details: 0.5 nM PTPN2, 100 μM DiFMUP, 30 min at room temperature
Text: Compounds were subsequently added using a Tecan D300e dispenser. […] A four-parameter curve fit was used to determine IC50 values from % inhibition data.

Chain of full-length human PTPN2 (TC45) (1-387) protein (P17706 other isoform, or with tags, fused parts or gaps): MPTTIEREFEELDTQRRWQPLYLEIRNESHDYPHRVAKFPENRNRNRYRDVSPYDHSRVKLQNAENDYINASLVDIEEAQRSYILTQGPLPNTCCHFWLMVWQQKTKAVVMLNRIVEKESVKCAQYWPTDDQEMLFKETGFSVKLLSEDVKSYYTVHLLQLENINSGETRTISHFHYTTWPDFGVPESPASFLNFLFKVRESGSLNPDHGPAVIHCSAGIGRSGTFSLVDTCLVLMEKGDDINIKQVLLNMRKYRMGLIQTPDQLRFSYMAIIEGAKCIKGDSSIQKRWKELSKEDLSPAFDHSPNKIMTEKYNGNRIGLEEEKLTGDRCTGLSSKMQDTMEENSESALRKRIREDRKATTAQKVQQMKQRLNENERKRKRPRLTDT

Row | Compound | IC50 [1] [µM] | IC50 [2] [µM]
1 | CC(C)CCN[C@@H]1C[C@H]2C[C@@H]1c1c2cc(O)c(N2CC(=O)NS2(=O)=O)c1F [Example 3, 5-((1R,3R,4R)-5-fluoro-7-hydroxy-3-(isopentylamino)-1,2,3,4-tetrahydro-1,4-methanonaphthalen-6-yl)-1,2,5-thiadiazolidin-3-one 1,1-dioxide] | 7.82 | 
2 | CC(C)CCNC1CCc2nc(O)c(N3CC(=O)NS3(=O)=O)c(F)c2C1 (centres unmarked) [Example 4, 5-(4-fluoro-2-hydroxy-6-(isopentylamino)-5,6,7,8-tetrahydroquinolin-3-yl)-1,2,5-thiadiazolidin-3-one 1,1-dioxide] |  | 70.8
